The results in this text go back to ChEMBL document CHEMBL5352495, “Development of novel pyrazole, imidazo[1,2-b]pyrazole, and pyrazolo[1,5-a]pyrimidine derivatives as a new class of COX-2 inhibitors with immunomodulatory potential” (Eur J Med Chem, 2023).

Each structure is given as a SMILES string.

The target of assay [1] is T1, Prostaglandin G/H synthase 2 (Homo sapiens, UniProt P35354).
T1 sequence (P35354 whole entry): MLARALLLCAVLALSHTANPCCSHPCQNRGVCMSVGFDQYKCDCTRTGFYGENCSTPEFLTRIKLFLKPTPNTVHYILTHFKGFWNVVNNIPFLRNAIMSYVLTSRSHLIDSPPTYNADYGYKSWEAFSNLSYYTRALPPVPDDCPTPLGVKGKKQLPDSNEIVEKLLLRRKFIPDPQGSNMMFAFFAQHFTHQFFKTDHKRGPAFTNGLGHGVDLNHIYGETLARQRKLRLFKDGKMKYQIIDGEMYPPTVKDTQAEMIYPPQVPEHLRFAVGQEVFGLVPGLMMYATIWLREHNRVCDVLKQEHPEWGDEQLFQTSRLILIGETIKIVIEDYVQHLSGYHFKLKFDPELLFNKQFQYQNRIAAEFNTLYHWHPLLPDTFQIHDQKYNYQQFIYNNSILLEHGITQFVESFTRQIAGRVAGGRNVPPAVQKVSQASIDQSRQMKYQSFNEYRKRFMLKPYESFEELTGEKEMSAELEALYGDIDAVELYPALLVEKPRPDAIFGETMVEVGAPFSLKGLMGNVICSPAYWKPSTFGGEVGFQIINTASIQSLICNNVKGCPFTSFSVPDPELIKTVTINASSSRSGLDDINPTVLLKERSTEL
Description: Inhibition of COX-2 (unknown origin) incubated for 5 to 10 mins by fluorometric analysis

In assay [2] the test system is RAW264.7. In words: Anti-inflammatory activity against LPS-stimulated mouse RAW264.7 cells assessed as inhibition of TNF alpha expression at 10 ug by qRT-PCR analysis relative to control. The class given is functional. The arrangement: scale not given: the % may be the effect or the level left. Conditions: dose 10 µg. (In general: In qPCR the cycle at which signal appears reflects the starting amount.)

The test system of assay [3] is RAW264.7. As to the kind of experiment: Anti-inflammatory activity against LPS-stimulated mouse RAW264.7 cells assessed as inhibition of IL-6 expression at 10 ug by qRT-PCR analysis relative to control. The class given is functional. Also noted: scale not given: the % may be the effect or the level left. Conditions: dose 10 µg.

`COC(=O)c1cc(=O)n2nc(N)c(/N=N/c3ccc(O)cc3)c2[nH]1`: 67.5 µM corresponded to half-maximal inhibition in assay [1] (IC50).
For the compound `Nc1nn2c(-c3cccs3)cc(-c3cccs3)nc2c1/N=N/c1ccc(O)cc1`, the IC50 (usually the concentration needed to halve the response being measured) in assay [1] is 3.37 µM. Besides, the Activity in the assay with RAW264.7 [2] came to 59.2%; in the assay on RAW264.7 [3], 70.3%.
As for `CC1=Nc2c(/N=N/c3ccc(O)cc3)c(N)nn2C1=O`, in assay [1], the midpoint of inhibition, the IC50, lay at 295 µM.
The same measure, in the same setting: then `CC(=O)Nc1nn2c(NC(C)=O)cc(=O)[nH]c2c1/N=N/c1ccc(O)cc1`, with 15.9 µM.
For the compound `Cc1cc(=O)n2nc(N)c(/N=N/c3ccc(O)cc3)c2[nH]1`, the IC50 in assay [1] is 5.68 µM. Besides, the Activity is recorded as 63.1% with RAW264.7 [2] and 65.8% with RAW264.7 [3].
Regarding `COc1ccc(-c2nc3c(/N=N/c4ccc(O)cc4)c(N)nn3c(N)c2C#N)cc1`, the IC50 in assay [1] came to 21.1 µM.
On the same count and under the same terms, the value for `Nc1n[nH]c(/N=C2/C(=O)Nc3ccc(S(=O)(=O)N4CCCC4)cc32)c1/N=N/c1ccc(O)cc1` was 36.5 µM; that for `CCOC(=O)C1=Nc2c(/N=N/c3ccc(O)cc3)c(N)nn2C1=O` was 79.3 µM; that for `CCOC(=O)CC(=O)Nc1[nH]nc(N)c1/N=N/c1ccc(O)cc1` was 125 µM.
On the same count and under the same terms, the value for `Nc1n[nH]c(N=c2c(=O)c3ccccc3c2=O)c1/N=N/c1ccc(O)cc1` was 61.4 µM; that for `N#Cc1c(-c2ccccc2Cl)nc2c(/N=N/c3ccc(O)cc3)c(N)nn2c1N` was 84.8 µM.
For the compound `Cc1cc(C)n2nc(N)c(/N=N/c3ccc(O)cc3)c2n1`, the IC50 in assay [1] is 46.3 µM.
On to `Cc1ccc(-c2cc(C(F)(F)F)nn2-c2ccc(S(N)(=O)=O)cc2)cc1` [CELECOXIB], for which the Activity with RAW264.7 [2] is 72.7%; with RAW264.7 [3], 76.8%.
